# No end group written: not given here.
# What was measured:
# [1] = test system: Trichophyton rubrum NBRC9185; conditions: Table 4; two tests, first/second value where not identical
# Fusarium solani JCM11383 = conditions: Table 4; two tests, first/second value where not identical
# [2] = test system: Alternaria alternata JCM5800; conditions: Table 4; two tests, first/second value where not identical
# [3] = test system: Trichophyton mentagrophytes NBRC6124; conditions: Table 4; two tests, first/second value where not identical
# Candida krusei NBRC1395 = conditions: Table 4; two tests, first/second value where not identical
# [4] = test system: Staphylococcus aureus ATCC29213; experiment: ATP Assay (viability at 3 hours), Table 6; type: cell-based; conditions: 3 h, 5 μg/mL
# Method: (§1) Bacteria (Escherichia coli ATCC 25922, Pseudomonas aeruginosa ATCC 27853, Staphylococcus aureus ATCC29213, and Staphylococcus epidermidis JCM 2414) were inoculated to Mueller-Hinton broth: MHB or LB medium, and cultured at a temperature and period suited for each strain. From the thus obtained colonies, each strain was inoculated to a fresh liquid medium and cultured for 16 to 20 hours. Then an aliquot having a volume (10 to 50 μL) appropriate to each strain was inoculated to a fresh liquid medium and cultured for 4 to 6 hours, followed by the measurement of the absorbance at 600 nm. After comparing the turbidity with McFarland #0.5, the resultant was diluted with a medium. Each strain was added to about 10^5 CFU/mL (final concentration).
# (§2) Each of the peptide solutions to be tested was diluted with the medium to obtain a solution of 10 μg/mL. As positive controls, tobramycin (TOB), oxacillin (OX) and meropenem (MEPM) were used. By dilution with sterilized purified water to 1.0 mg/mL, positive control-containing media having concentrations of […], respectively for TOB; 0.5, 0.12 and 0.06 μg/mL, respectively, for OX; and 1.0, 0.25, 0.12, 0.06, 0.03 and 0.008 μg/mL respectively, for MEPM, were prepared. To a 96-well microtiter plate, 0.1 mL of the inoculation solution and 0.1 mL of the peptide- or positive control-containing medium having the respective concentration were added, and cultured at 37° C. for 3 hours. The well not containing the sample was used as a negative control. After the culturing, ATP was measured using BacTiter-Glo Microbial Cell Viability Assay kit of PROMEGA, and compared with that in the negative control to obtain a relative value which was defined as a viability. The antibacterial activity was evaluated based on the viability at 3 hours later using ATP as an index.
# (§3) The medium used in this test for bacteria was Mueller-Hinton broth. Independent experiments were carried out twice for each strain.
# [5] = test system: Escherichia coli ATCC 25922; experiment: ATP Assay (viability at 3 hours), Table 6; type: cell-based; conditions: 3 h, 5 μg/mL
# Method: as §1, §2, §3
# [6] = test system: Pseudomonas aeruginosa ATCC 27853; experiment: ATP Assay (viability at 3 hours), Table 6; type: cell-based; conditions: 3 h, 5 μg/mL
# Method: as §1, §2, §3
# [7] = test system: Staphylococcus aureus ATCC29213; experiment: microbe, parasite or virus in culture; type: cell-based; conditions: Table 5; unit not given
# Method: (§4) Bacteria (Escherichia coli ATCC 25922, Pseudomonas aeruginosa ATCC 27853, Staphylococcus aureus ATCC29213, Klebsiella pneumoniae JCM 1662, Enterobacter cloacae JCM 1232, Enterobacter aerogenes JCM 1235 and Staphylococcus epidermidis JCM 2414) were inoculated to Mueller-Hinton broth: MHB or LB medium, and cultured at a temperature and period suited for each strain. From the thus obtained colonies, each strain was inoculated to a fresh liquid medium and cultured for 16 to 20 hours. Then an aliquot having a volume (10 to 50 appropriate to each strain was inoculated to a fresh liquid medium and cultured for 4 to 6 hours, followed by the measurement of the absorbance at 600 nm. After comparing the turbidity with McFarland #0.5, the resultant was diluted with a medium. Each strain was added to about 10^5 CFU/mL (final concentration). Each of the peptide solutions to be tested was diluted with MHB to obtain a solution of 128 μg/mL. […] As controls, tobramycin (TOB: aminoglucoside antibiotic), oxacillin (OX:β-lactam antibiotic), meropenem (MEPM: carbapenem antibiotic) and ciprofloxacin (new quinolone antibiotic) were used. […] To a 96-well microtiter plate, 0.1 mL of the inoculation solution and 0.1 mL of the peptide- or positive control-containing medium having the respective concentration were added, and cultured at 37° C. for 16 to 24 hours (or a time period suited for the growth of the respective strain). The well not containing the sample was used as a negative control. After the culturing, the growth was visually observed, and the minimum concentration at which the growth was inhibited was defined as the minimum growth inhibition concentration (MIC). The medium used in this test for bacteria was Mueller-Hinton broth. Independent experiments were carried out twice or more for each strain.
# [8] = test system: Staphylococcus epidermidis JCM 2414; experiment: microbe, parasite or virus in culture; type: cell-based; conditions: Table 5; unit not given
# Method: as §4
# [9] = test system: Escherichia coli ATCC 25922; experiment: microbe, parasite or virus in culture; type: cell-based; conditions: Table 5; unit not given
# Method: as §4
# [10] = test system: Pseudomonas aeruginosa ATCC 27853; experiment: microbe, parasite or virus in culture; type: cell-based; conditions: Table 5; unit not given
# Method: as §4
Compound,MIC Trichophyton rubrum [1] [µg/mL],MIC Fusarium solani (Fusarium solani JCM11383) [µg/mL],MIC Alternaria alternata [2] [µg/mL],MIC Trichophyton mentagrophytes [3] [µg/mL],MIC Candida krusei (Candida krusei NBRC1395) [µg/mL],"Staphylococcus aureus ATP (viability, relative value to negative control) [4]","Escherichia coli ATP (viability, relative value to negative control) [5]","Pseudomonas aeruginosa ATP (viability, relative value to negative control) [6]",MIC Staphylococcus aureus [7],MIC Staphylococcus epidermidis [8],MIC Escherichia coli [9],MIC Pseudomonas aeruginosa [10]
"C[C@@H]1[C@H](O)[C@@H](C)/C=C/C=C/C=C/C=C/C=C/C=C/C=C/[C@H](O[C@@H]2O[C@H](C)[C@@H](O)[C@H](N)[C@@H]2O)C[C@@H]2O[C@](O)(C[C@@H](O)C[C@@H](O)[C@H](O)CC[C@@H](O)C[C@@H](O)CC(=O)O[C@H]1C)C[C@H](O)[C@H]2C(=O)O [amphotericin B, reference compound]",250,1000,1000,125,2000,–,–,–,–,–,–,–
Ac-RLKRLGERLKRKIQKLIRL-NH2 [SRP-33],–,–,–,–,–,1.6,2.9,2.8,16,8-16,8-16,8-16
GERLKRKIQKWIRW-NH2 [SRP-26],–,–,–,–,–,12.9,9.0,6.2,16,16-32,16-32,16
GRLKRIGERLKRKIQKWIRW-NH2 [SRP-24],–,–,–,–,–,2.7,8.2,1.3,16,8-32,16,8-16
GRLKRLGERLKRKIQKLIRL-NH2 [SRP-27],–,–,–,–,–,3.2,5.6,2.1,16,8-16,16,8-16
GRLKRLGERLKRKIQKWIRW-NH2 [SRP-22],–,–,–,–,–,5.0,4.5,1.4,8-16,8,8-16,8-16
GRLKRLGKRLKRKIQKLARL-NH2 [SRP-32],–,–,–,–,–,5.2,7.0,1.6,16,4-8,16,8-16
GRLKRVGERLKRKIQKWIRW-NH2 [SRP-23],–,–,–,–,–,3.0,2.8,1.5,8-16,8-16,16,8-16
KRLGERLKRKIQKLIRL-NH2 [SRP-30],–,–,–,–,–,6.3,19.9,2.0,16-64,8-16,64,8-16
LKRLGERLKRKIQKLIRL-NH2 [SRP-29],–,–,–,–,–,1.9,9.0,1.8,16-32,8,16-32,8
MGERLKRKIQKWIRW-NH2 [SRP-25],–,–,–,–,–,10.9,23.5,15.4,16,8-32,16,16
RLGERLKRKIQKLIRL-NH2 [SRP-31],–,–,–,–,–,19.7,27.4,9.7,32-64,8-16,32-64,16
RLKRLGERLKRKIQKL-NH2 [SRP-36],–,–,–,–,–,3.6,6.4,2.0,16-32,8,16-32,8-16
RLKRLGERLKRKIQKLI-NH2 [SRP-35],–,–,–,–,–,2.1,3.6,5.2,16-32,8,8-16,8-16
RLKRLGERLKRKIQKLIR-NH2 [SRP-34],–,–,–,–,–,2.6,4.4,2.8,16-32,8-16,8-16,8-16
RLKRLGERLKRKIQKLIRL-NH2 [SRP-28],–,–,–,–,–,5.2,7.1,1.4,16,8-16,16,4-8
